# Test results: patent publication US7928135B2, “Benzene, pyridine, and pyridazine derivatives” (Serenex, Inc., priority 2005, dated 2011)
# System: PC-3 cell proliferation
# Experiment: Cell proliferation assay (WST-1), PC-3
# Format: cell-based
# Settings: Homo sapiens; PC-3 cells, WST-1 readout; read-out: inhibitory activity against PC-3 cell proliferation (IC50 range)
# Protocol: A panel of cancer cell lines was obtained from the DCTP Tumor Repository, National Cancer Institute (Frederick, Md.) or ATCC (Rockville, Md.). Cell cultures were maintained in Hyclone RPMI 1640 medium (Logan, Utah) supplemented with 10% fetal bovine serum and 20 mM HEPES buffer, final pH 7.2, at 37° C. with a 5% CO2 atmosphere. Cultures were maintained at sub-confluent densities. Human umbilical vein endothelial cells (HUVEC) were purchased from Clonetics, a division of Cambrex (Walkersville, Md.). Cultures were established from cryopreserved stocks using Clonetics EGM-2 medium supplemented with 20 mM HEPES, final pH 7.2, at 37° C. with a 5% CO2 atmosphere.
# For proliferation assays, cells were seeded with the appropriate medium into 96 well plates at 1,000-2,500 cells per well, depending on the cell line, and were incubated overnight. The following day, test compound, DMSO solution (negative control), or Actinomycin D (positive control) was added to the appropriate wells as 10× concentrated stocks prepared in phosphate buffered saline. The cell plates were then incubated for an additional 2-5 days, depending on the cell line, to allow proliferation to occur. To measure cell density, 50 μL of WST-1 solution (Roche Applied Science, Ind.) diluted 1:5 in phosphate buffered saline was added to each well, and the cells incubated for an additional 1-5 hrs., again depending on the cell line. Optical density was determined for each well at […] using a Tecan GeniosPro plate reader (RTP, NC). The percentage of cell growth was determined by comparing the cell growth in the presence of test compounds to the cells treated with DMSO vehicle (control, 100% growth) and cells treated with Actinomycin D (10 μM, 0% growth). […]
row,SMILES,IC50
1,"COc1ccc(Nc2cc(-n3nc(C)c4c3CC(C)(C)CC4=O)ccc2C(N)=O)cc1OCCN(C)C [Compound 27, 2-[3-(2-Dimethylamino-ethoxy)-4-methoxy-phenylamino]-4-(3,6,6-trimethyl-4-oxo-4,5,6,7-tetrahydro-indazol-1-yl)-benzamide]",< 500 nM
2,"CC1(C)CC(=O)c2c(C(F)(F)F)nn(-c3ccc(C(N)=O)c(NC4CCSCC4)c3)c2C1 [Compound 31, 4-(6,6-Dimethyl-4-oxo-3-trifluoromethyl-4,5,6,7-tetrahydro-indazol-1-yl)-2-(tetrahydro-thiopyran-4-ylamino)-benzamide]",< 500 nM
3,"COc1ccc(Nc2cc(-n3cc(C)c4c3CC(C)(C)CC4=O)ccc2C(N)=O)cc1OCCN(C)C [Compound 104, 2-({3-[2-(dimethylamino)ethoxy]-4-methoxyphenyl}amino)-4-(3,6,6-trimethyl-4-oxo-4,5,6,7-tetrahydro-1H-indol-1-yl)benzamide]",< 500 nM
4,"Cc1nn(-c2ccc(C(N)=O)c(N[C@H](C)c3ccccc3)c2)c2c1C(=O)CC(C)(C)C2 [Compound 106, 2-{[(1R)-1-phenylethyl]amino}-4-(3,6,6-trimethyl-4-oxo-4,5,6,7-tetrahydro-1H-indazol-1-yl)benzamide]",500 to 5000 nM
5,"CC1(C)CC(=O)c2c(-c3ccccc3)cn(-c3ccc(C(N)=O)cc3)c2C1 [Compound 110, 4-(6,6-dimethyl-4-oxo-3-phenyl-4,5,6,7-tetrahydro-1H-indol-1-yl)benzamide]",5000 to 50000 nM
6,"Cc1cn(-c2ccc(C(N)=O)c(NCCNC(=O)CO)c2)c2c1C(=O)CC(C)(C)C2 [Compound 112, 2-{[2-(glycoloylamino)ethyl]amino}-4-(3,6,6-trimethyl-4-oxo-4,5,6,7-tetrahydro-1H-indol-1-yl)benzamide]",5000 to 50000 nM
7,"Cc1nn(-c2ccc(C(N)=O)c(NCCS(C)(=O)=O)c2)c2c1C(=O)CC(C)(C)C2 [Compound 113, 2-{[2-(methylsulfonyl)ethyl]amino}-4-(3,6,6-trimethyl-4-oxo-4,5,6,7-tetrahydro-1H-indazol-1-yl)benzamide]",< 500 nM
8,"CC1(C)CC(=O)c2c(C(F)F)nn(-c3ccc(C(N)=O)c(NC4CC=CC4)c3)c2C1 [Compound 116, 2-(cyclopent-3-en-1-ylamino)-4-[3-(difluoromethyl)-6,6-dimethyl-4-oxo-4,5,6,7-tetrahydro-1H-indazol-1-yl]benzamide]",< 500 nM
9,"CC1(C)CC(=O)c2c(C(F)(F)F)nn(-c3ccc(C(N)=O)c(NC4CCN(S(C)(=O)=O)CC4)c3)c2C1 [Compound 124, 4-[6,6-dimethyl-4-oxo-3-(trifluoromethyl)-4,5,6,7-tetrahydro-1H-indazol-1-yl]-2-{[1-(methylsulfonyl)piperidin-4-yl]amino}benzamide]",< 500 nM
10,"Cc1nn(-c2ccc(C(N)=O)c(NC3CCN(C(=O)CCN4CCOCC4)CC3)c2)c2c1C(=O)CC(C)(C)C2 [Compound 127, 2-{[1-(3-morpholin-4-ylpropanoyl)piperidin-4-yl]amino}-4-(3,6,6-trimethyl-4-oxo-4,5,6,7-tetrahydro-1H-indazol-1-yl)benzamide]",< 500 nM
11,"Cc1nn(-c2ccc(C(N)=O)c(NC3CCN(C(=O)CN)CC3)c2)c2c1C(=O)CC(C)(C)C2 [Compound 129, 2-[(1-glycylpiperidin-4-yl)amino]-4-(3,6,6-trimethyl-4-oxo-4,5,6,7-tetrahydro-1H-indazol-1-yl)benzamide]",500 to 5000 nM
12,"CN(C)S(=O)(=O)CCNc1cc(-n2nc(C(F)(F)F)c3c2CC(C)(C)CC3=O)ccc1C(N)=O [Compound 136, 2-({2-[(dimethylamino)sulfonyl]ethyl}amino)-4-[6,6-dimethyl-4-oxo-3-(trifluoromethyl)-4,5,6,7-tetrahydro-1H-indazol-1-yl]benzamide]",500 to 5000 nM

# The next lines start with the values.
row,IC50,SMILES
1,500 to 5000 nM,"COCCNc1cc(-n2cc(C)c3c2CC(C)(C)CC3=O)ccc1C(N)=O [Compound 5, 2-(2-Methoxy-ethylamino)-4-(3,6,6-trimethyl-4-oxo-4,5,6,7-tetrahydro-indol-1-yl)-benzamide]"
2,< 500 nM,"COc1cc(Nc2cc(-n3nc(C)c4c3CC(C)(C)CC4=O)ccc2C(N)=O)cc(OC)c1OC [Compound 19, 4-(6,6-Dimethyl-4-oxo-3-methyl-4,5,6,7-tetrahydro-indazol-1-yl)-2-(3,4,5-trimethoxyanilino)-benzamide]"
3,500 to 5000 nM,"C#Cc1cccc(Nc2cc(-n3c(C)cc4c3CC(C)(C)CC4=O)ccc2C(N)=O)c1 [Compound 72, 2-[(3-ethynylphenyl)amino]-4-(2,6,6-trimethyl-4-oxo-4,5,6,7-tetrahydro-1H-indol-1-yl)benzamide]"
4,5000 to 50000 nM,"Cc1cc2c(n1-c1ccc(C(N)=O)c(Nc3ccccc3)c1)CCCC2=O [Compound 74, 2-anilino-4-(2-methyl-4-oxo-4,5,6,7-tetrahydro-1H-indol-1-yl)benzamide]"
5,< 500 nM,"COc1cc(Nc2cc(-n3c(C)c(Cl)c4c3CC(C)(C)CC4=O)ccc2C(N)=O)cc(OC)c1OC [Compound 81, 4-(3-chloro-2,6,6-trimethyl-4-oxo-4,5,6,7-tetrahydro-1H-indol-1-yl)-2-[(3,4,5-trimethoxyphenyl)amino]benzamide]"
6,500 to 5000 nM,"Cc1cc2c(n1-c1ccc(C(N)=O)c(Nc3ccc(O)cc3)c1)CC(C)(C)CC2=O [Compound 82, 2-[(4-hydroxyphenyl)amino]-4-(2,6,6-trimethyl-4-oxo-4,5,6,7-tetrahydro-1H-indol-1-yl)benzamide]"
7,500 to 5000 nM,"Cc1cc(Nc2cc(-n3c(C)cc4c3CC(C)(C)CC4=O)ccc2C(N)=O)no1 [Compound 84, 2-[(5-methylisoxazol-3-yl)amino]-4-(2,6,6-trimethyl-4-oxo-4,5,6,7-tetrahydro-1H-indol-1-yl)benzamide]"
8,500 to 5000 nM,"COc1ccc(Nc2cc(-n3c(C)cc4c3CC(C)(C)CC4=O)ccc2C(N)=O)cc1OCCCN(C)C [Compound 93, 2-({3-[3-(dimethylamino)propoxy]-4-methoxyphenyl}amino)-4-(2,6,6-trimethyl-4-oxo-4,5,6,7-tetrahydro-1H-indol-1-yl)benzamide]"
9,< 500 nM,"Cc1cn(-c2ccc(C(N)=O)c(Nc3ccncc3)c2)c2c1C(=O)CC(C)(C)C2 [Compound 97, 2-(pyridin-4-ylamino)-4-(3,6,6-trimethyl-4-oxo-4,5,6,7-tetrahydro-1H-indol-1-yl)benzamide]"
10,< 500 nM,"Cc1nn(-c2ccc(C(N)=O)c(NCC3CC3)c2)c2c1C(=O)CC(C)(C)C2 [Compound 100, 2-[(cyclopropylmethyl)amino]-4-(3,6,6-trimethyl-4-oxo-4,5,6,7-tetrahydro-1H-indazol-1-yl)benzamide]"
11,500 to 5000 nM,"COCC(=O)Nc1cc(-n2cc(C)c3c2CC(C)(C)CC3=O)ccc1C(N)=O [Compound 101, 2-[(methoxyacetyl)amino]-4-(3,6,6-trimethyl-4-oxo-4,5,6,7-tetrahydro-1H-indol-1-yl)benzamide]"
12,< 500 nM,"Cc1cn(-c2ccc(C(N)=O)c(Nc3ccnc(OCCN(C)C)c3)c2)c2c1C(=O)CC(C)(C)C2 [Compound 108, 2-({2-[2-(dimethylamino)ethoxy]pyridin-4-yl}amino)-4-(3,6,6-trimethyl-4-oxo-4,5,6,7-tetrahydro-1H-indol-1-yl)benzamide]"
13,< 500 nM,"COc1ccc(Nc2cc(-n3nc(C)c4c3CC(C)(C)CC4=O)ccc2C(N)=O)cc1 [Compound 114, 2-[(4-methoxyphenyl)amino]-4-(3,6,6-trimethyl-4-oxo-4,5,6,7-tetrahydro-1H-indazol-1-yl)benzamide]"
14,500 to 5000 nM,"Cc1nn(-c2ccc(C(N)=O)c(Nc3cccc([S+](C)[O-])c3)c2)c2c1C(=O)CC(C)(C)C2 (stereo not drawn) [Compound 123, 2-{[3-(methylsulfinyl)phenyl]amino}-4-(3,6,6-trimethyl-4-oxo-4,5,6,7-tetrahydro-1H-indazol-1-yl)benzamide]"

# System: HSP-90 (heat shock protein 90)
# Experiment: Determination of affinity for HSP-90 (elution from purine affinity column, SDS-PAGE densitometry)
# Format: binding
# Parameters: key: +++: very high; ++: high; +: moderate
# Settings: elution of HSP-90 from purine affinity column with 20, 100 and 500 μM test compound
# Protocol: Affinity of test compounds for HSP-90 was determined as follows: Protein mixtures obtained from a variety of organ tissues (for example: spleen, liver and lung) were reversibly bound to a purine affinity column to capture purine-binding proteins, especially HSP-90. The purine affinity column was washed several times, and then eluted with 20 μM, 100 μM, and 500 μM of test compound. Compounds of Formula I elute HP-90 in a dose-dependent manner vs. a control elution using dimethylsulfoxide. The elution profile of Formula I compounds was determined by 1-dimensional SDS polyacrylamide gel electrophoresis. Gels were stained with a fluorescent stain such as sypro ruby (a highly sensitive fluorescent protein stain that can readily detect less than 1 fmol of total protein, i.e., less than 0.04 ng for a 40 kDa protein) or silver nitrate. The gels were imaged using a standard flat bed gel imager and the amount of protein estimated by densitometry. The percent of HSP-90 protein eluted from the column at each concentration was determined and IC50 values were calculated from these estimates. The identity of a band containing HSP-90 was determined by protein sequencing using mass spectroscopy.
# Compounds of the invention are inhibitors of HSP-90 (heat shock protein 90). Several exemplary compounds useful in the methods of the invention are listed below.
row,relative binding affinity to HSP-90,SMILES
1,++,"CC1(C)CC(=O)c2c(C(F)(F)F)nn(-c3ccc(C(N)=O)c(NCC(O)CO)c3)c2C1 (stereo not drawn) [Compound 30, 2-(2,3-Dihydroxy-propylamino)-4-(6,6-dimethyl-4-oxo-3-trifluoromethyl-4,5,6,7-tetrahydro-indazol-1-yl)-benzamide]"
